Results taken from ChEMBL document CHEMBL3217710, “Antimalarial peroxides: advances in drug discovery and design” (Medchemcomm, 2012).
One block for each compound: values may come before it.

How the values were obtained:
Plasmodium falciparum [1] = experiment: Antimalarial activity against chloroquine-resistant Plasmodium falciparum K1; assay type: functional, organism-based
[2] = Half life in simulated stomach acid; assay type: ADME
Plasmodium berghei [3] = experiment: Antimalarial activity against chloroquine-sensitive Plasmodium berghei infected in mouse; assay type: functional
Plasmodium yoelii = experiment: Antimalarial activity against chloroquine-resistant Plasmodium yoelii infected in po dosed mouse; assay type: functional
Plasmodium berghei [4] = experiment: Antimalarial activity against Plasmodium berghei infected in sc dosed mouse; assay type: functional, organism-based
Plasmodium falciparum [5] = experiment: Antimalarial activity against chloroquine-resistant Plasmodium falciparum; assay type: functional, organism-based
Plasmodium falciparum [6] = experiment: Antimalarial activity against chloroquine-sensitive Plasmodium falciparum; assay type: functional, organism-based
Plasmodium vinckei [7] = experiment: Antimalarial activity against Plasmodium vinckei infected in ip dosed mouse assessed as decrease in parasitemia by peters four day suppressive test; assay type: functional; details: 96 h
Plasmodium vinckei [8] = experiment: Antimalarial activity against Plasmodium vinckei infected in po dosed mouse assessed as decrease in parasitemia by peters four day suppressive test; assay type: functional; details: 96 h
Plasmodium falciparum [9] = experiment: Antimalarial activity against chloroquine-sensitive Plasmodium falciparum FCR-3; assay type: functional; details: FCR-3/Gambia
Plasmodium falciparum [10] = experiment: Antimalarial activity against Plasmodium falciparum; assay type: functional, organism-based
[11] = Half life of the compound in HCl solution at pH 1; assay type: physicochemical
[12] = Oral bioavailability in rat at 50 mg/kg; assay type: ADME, organism-based; details: in vivo
[13] = Octanol-water partition coefficient, log P of the compound at pH 7.4; assay type: physicochemical
Plasmodium falciparum [14] = experiment: Antimalarial activity against chloroquine-sensitive Plasmodium falciparum at 1.4 nM relative to control; assay type: functional
Plasmodium falciparum [15] = experiment: Antimalarial activity against chloroquine-sensitive Plasmodium falciparum at 5.2 nM relative to control; assay type: functional
[16] = Therapeutic index, ratio of compound activity in mouse assessed as body weight gain to compound activity against Plasmodium berghei infected in mouse; assay type: organism-based; details: in vivo, read-out: TI
Plasmodium falciparum [17] = experiment: Antimalarial activity against chloroquine-sensitive Plasmodium falciparum at 4.6 nM relative to control; assay type: functional
Plasmodium falciparum [18] = experiment: Antimalarial activity against multi-drug resistant Plasmodium falciparum; assay type: functional, organism-based
[19] = Half life in human infected with Plasmodium; details: in vivo
Plasmodium falciparum [20] = experiment: Antimalarial activity against chloroquine-sensitive Plasmodium falciparum NF54; assay type: functional, organism-based
[21] = Drug degradation at 40 degC after 1 month; assay type: physicochemical; details: read-out: Drug degradation
[22] = Drug degradation at 40 degC after 3 months; assay type: physicochemical; details: read-out: Drug degradation

Compound: Fc1ccc(C2=C[C@H]3OC4(CCCC4)OO[C@@]3(c3ccc(F)cc3)C2)cc1
IC50 (Plasmodium falciparum [1]): < 5 nM

Compound: C[C@H]1[C@@H](CCc2ccc(C(=O)O)cc2)O[C@@H]2O[C@]3(C)CC[C@H]4[C@H](C)CC[C@@H]1[C@@]24OO3
half-life [2]: 0.546 days

Compound: C[C@H]1[C@@H](Oc2ccc(C(F)(F)F)cc2)O[C@@H]2O[C@]3(C)CC[C@H]4[C@H](C)CC[C@@H]1[C@@]24OO3
ED50 (Plasmodium berghei [3]): 2.1 mg/kg

Compound: C[C@H]1[C@@H](CCN2CCN(c3cccc(C(F)(F)F)c3)CC2)O[C@@H]2O[C@]3(C)CC[C@H]4[C@H](C)CC[C@@H]1[C@@]24OO3
ED50 (Plasmodium yoelii): 3.1 mg/kg

Compound: C[C@H]1[C@@H](CCN2CCN(c3ccc(F)cc3)CC2)O[C@@H]2O[C@]3(C)CC[C@H]4[C@H](C)CC[C@@H]1[C@@]24OO3
ED50 (Plasmodium yoelii): < 10 mg/kg

Compound: C[C@H]1[C@@H](CCN2CCN(c3ccccc3)CC2)O[C@@H]2O[C@]3(C)CC[C@H]4[C@H](C)CC[C@@H]1[C@@]24OO3
ED50 (Plasmodium yoelii): < 10 mg/kg

Compound: C[C@H]1[C@@H](CCN2CCN(c3ccc([N+](=O)[O-])cc3)CC2)O[C@@H]2O[C@]3(C)CC[C@H]4[C@H](C)CC[C@@H]1[C@@]24OO3
ED50 (Plasmodium yoelii): < 10 mg/kg

Compound: COC1(c2ccc(S(C)(=O)=O)cc2)C=CC2(CCCCCC2)OO1 (stereo not drawn)
IC50 (Plasmodium berghei [4]): 31 nM

Compound: CC(C)C1=C[C@H]2OC3(CCC(NCCNc4ccnc5cc(Cl)ccc45)CC3)OO[C@@]2(C)CC1.O=C(O)CC(O)(CC(=O)O)C(=O)O (stereo partly drawn)
IC50 (Plasmodium falciparum [5]): 5 nM
IC50 (Plasmodium falciparum [6]): 4 nM
ED50 (Plasmodium vinckei [7]): 5 mg/kg
ED50 (Plasmodium vinckei [8]): 18 mg/kg

Compound: C1CCCCCC2(CCCCC1)OOCCCOO2
EC50 (Plasmodium falciparum [9]): 2.5 nM

Compound: C[C@@H]1CC[C@H]2[C@@H](C)C(Oc3ccccc3)O[C@@H]3O[C@@]4(C)CC[C@@H]1[C@]32OO4 (stereo partly drawn)
IC50 (Plasmodium falciparum [5]): 5.3 nM
IC50 (Plasmodium falciparum [6]): 3.9 nM

Compound: C[C@@H]1CC[C@H]2[C@@H](C)[C@](O)(C(F)(F)F)O[C@@H]3O[C@@]4(C)CC[C@@H]1[C@]32OO4
IC50 (Plasmodium falciparum [10]): 9.4 nM
half-life [11]: 31.7 days
bioavailability [12]: 28%

Compound: CO[C@@]1(C(F)(F)F)O[C@@H]2O[C@@]3(C)CC[C@H]4[C@H](C)CC[C@@H]([C@H]1C)[C@@]24OO3
IC50 (Plasmodium falciparum [10]): 0.8 nM
half-life [11]: 27.5 days

Compound: CCO[C@@]1(C(F)(F)F)O[C@@H]2O[C@@]3(C)CC[C@H]4[C@H](C)CC[C@@H]([C@H]1C)[C@@]24OO3
IC50 (Plasmodium falciparum [10]): 3.3 nM
half-life [11]: 20.8 days

Compound: C[C@@H]1CC[C@H]2[C@@H](C)[C@](OC(=O)CCC(=O)O)(C(F)(F)F)O[C@@H]3O[C@@]4(C)CC[C@@H]1[C@]32OO4
IC50 (Plasmodium falciparum [10]): 4.1 nM

Compound: C[C@H]1[C@H](N2CCOCC2)O[C@@H]2O[C@@]3(C)CC[C@H]4[C@H](C)CC[C@@H]1[C@@]24OO3
logD [13]: 3.05

Compound: C[C@H]1[C@H](N2CC[S+]([O-])CC2)O[C@@H]2O[C@@]3(C)CC[C@H]4[C@H](C)CC[C@@H]1[C@@]24OO3
logD [13]: 2.63

Compound: C[C@H]1[C@H](c2ccco2)O[C@@H]2O[C@@]3(C)CC[C@H]4[C@H](C)CC[C@@H]1[C@@]24OO3
inhibition at 0.0014 µM (Plasmodium falciparum [14]): 50%

Compound: Cc1ccc([C@@H]2O[C@@H]3O[C@@]4(C)CC[C@H]5[C@H](C)CC[C@@H]([C@H]2C)[C@@]35OO4)o1
inhibition at 0.0052 µM (Plasmodium falciparum [15]): 50%

Compound: C[C@H]1[C@@H](CC(C[C@H]2O[C@@H]3O[C@@]4(C)CC[C@H]5[C@H](C)CC[C@@H]([C@H]2C)[C@@]35OO4)C(=O)O)O[C@@H]2O[C@@]3(C)CC[C@H]4[C@H](C)CC[C@@H]1[C@@]24OO3 (stereo partly drawn)
selectivity ratio [16]: 167

Compound: CC(=O)OC1(C)CCC2CC1OO[C@]2(/C=C\c1ccc(F)cc1)c1ccccc1 (stereo partly drawn)
IC50 (Plasmodium falciparum [1]): 29 nM

Compound: CC(=O)OC1(C)CCC2CC1OO[C@]2(/C=C\c1ccc(Cl)cc1)c1ccccc1 (stereo partly drawn)
IC50 (Plasmodium falciparum [1]): 23 nM

Compound: CC1CCC2CC1OO[C@]2(C)/C=C/[C@H](O)C(C)(C)O (stereo partly drawn)
IC50 (Plasmodium falciparum [1]): 115 nM

Compound: CC1CCC2CC1OO[C@]2(C)/C=C/[C@@H](O)C(C)(C)O (stereo partly drawn)
IC50 (Plasmodium falciparum [1]): 56 nM

Compound: Cc1ccc(C2=C[C@H]3OC4(CCCC4)OO[C@@]3(c3ccc(C)cc3)C2)cc1
IC50 (Plasmodium falciparum [1]): < 5 nM

Compound: Fc1ccc(C2=C[C@H]3OC4(CCOCC4)OO[C@@]3(c3ccc(F)cc3)C2)cc1
IC50 (Plasmodium falciparum [1]): < 5 nM

Compound: C=C(C)[C@@H]1OO[C@]2(O[C@H]1C1CC1)[C@H]1CC3C[C@@H](C1)C[C@H]2C3
IC50 (Plasmodium falciparum [1]): < 5 nM

Compound: C=C(C)[C@@H]1OO[C@]2(O[C@H]1CCC)[C@H]1CC3C[C@@H](C1)C[C@H]2C3
IC50 (Plasmodium falciparum [1]): < 5 nM

Compound: OCCCCCCC1COOC2(CCCCCCCCCCC2)OOC1
EC50 (Plasmodium falciparum [9]): 2.3 nM

Compound: Clc1ccc2c(NCCNC3CCC4(CC3)OOC3(c5ccccc5)CC(c5ccccc5)=CC3O4)ccnc2c1 (stereo not drawn)
IC50 (Plasmodium falciparum [5]): 20 nM
IC50 (Plasmodium falciparum [6]): 7 nM

Compound: CC1(C)COC2(CCC(NC3CCC(Nc4ccnc5cc(Cl)ccc45)CC3)CC2)OO1 (stereo not drawn)
IC50 (Plasmodium falciparum [5]): 7 nM
IC50 (Plasmodium falciparum [6]): 7 nM

Compound: Cc1ccc(OC2O[C@@H]3O[C@@]4(C)CC[C@H]5[C@H](C)CC[C@@H]([C@H]2C)[C@@]35OO4)cc1 (stereo partly drawn)
IC50 (Plasmodium falciparum [5]): 5.3 nM
IC50 (Plasmodium falciparum [6]): 3.9 nM

Compound: C[C@@H]1CC[C@H]2[C@@H](C)C(Oc3ccc(C(F)(F)F)cc3)O[C@@H]3O[C@@]4(C)CC[C@@H]1[C@]32OO4 (stereo partly drawn)
IC50 (Plasmodium falciparum [5]): 5.3 nM
IC50 (Plasmodium falciparum [6]): 3.9 nM

Compound: COc1ccc(OC2O[C@@H]3O[C@@]4(C)CC[C@H]5[C@H](C)CC[C@@H]([C@H]2C)[C@@]35OO4)cc1 (stereo partly drawn)
IC50 (Plasmodium falciparum [5]): 5.3 nM
IC50 (Plasmodium falciparum [6]): 3.9 nM

Compound: C[C@@H]1CC[C@H]2[C@@H](C)C(Oc3ccc(F)cc3)O[C@@H]3O[C@@]4(C)CC[C@@H]1[C@]32OO4 (stereo partly drawn)
IC50 (Plasmodium falciparum [5]): 5.3 nM
IC50 (Plasmodium falciparum [6]): 3.9 nM

Compound: C[C@@H]1CC[C@H]2[C@@H](C)C(Oc3ccc(Cl)cc3)O[C@@H]3O[C@@]4(C)CC[C@@H]1[C@]32OO4 (stereo partly drawn)
IC50 (Plasmodium falciparum [5]): 5.3 nM
IC50 (Plasmodium falciparum [6]): 3.9 nM

Compound: C[C@@H]1CC[C@H]2[C@@H](C)C(Oc3ccc(-c4cccc5ccccc45)cc3)O[C@@H]3O[C@@]4(C)CC[C@@H]1[C@]32OO4 (stereo partly drawn)
IC50 (Plasmodium falciparum [5]): 5.3 nM
IC50 (Plasmodium falciparum [6]): 3.9 nM

Compound: C[C@H]1[C@H](c2cccn2C)O[C@@H]2O[C@@]3(C)CC[C@H]4[C@H](C)CC[C@@H]1[C@@]24OO3
inhibition at 0.0046 µM (Plasmodium falciparum [17]): 50%

Compound: C1CCCCCC2(CCCCC1)OOCCCCCOO2
EC50 (Plasmodium falciparum [9]): 1 nM

Compound: CO[C@H]1O[C@@H]2O[C@@]3(C)CC[C@H]4[C@H](C)CC[C@@H]([C@H]1C)[C@@]24OO3 [ARTEMETHER]
logD [13]: 4
ED50 (Plasmodium yoelii): 6 mg/kg

Compound: C[C@H]1[C@H](N2CCS(=O)(=O)CC2)O[C@@H]2O[C@@]3(C)CC[C@H]4[C@H](C)CC[C@@H]1[C@@]24OO3 [ARTEMIFONE]
logD [13]: 2.49
ED90 (Plasmodium berghei [4]; sc): 1.5 mg/kg
EC50 (Plasmodium falciparum [18]): 0.14 nM

Compound: C[C@H]1[C@H](N2CCSCC2)O[C@@H]2O[C@@]3(C)CC[C@H]4[C@H](C)CC[C@@H]1[C@@]24OO3 [ARTEMISIDE]
logD [13]: 4.97

Compound: C[C@@H]1CC[C@H]2[C@@H](C)C(=O)O[C@@H]3O[C@@]4(C)CC[C@@H]1[C@]32OO4 [ARTEMISININ]
half-life [19]: 0.0833 days
IC50 (Plasmodium falciparum [20]): 8.9 nM
IC50 (Plasmodium falciparum [1]): 2.8 nM

degraded at 730.5 h [21]: 2%
degraded at 2191.5 h [22]: 2.9%
Compound: C[C@H]1[C@@H](O)O[C@@H]2O[C@@]3(C)CC[C@H]4[C@H](C)CC[C@@H]1[C@@]24OO3 [ARTENIMOL]

Compound: C[C@H]1[C@H](OC(=O)CCC(=O)O)O[C@@H]2O[C@@]3(C)CC[C@H]4[C@H](C)CC[C@@H]1[C@@]24OO3 [SODIUM ARESUNATE]
EC50 (Plasmodium falciparum [18]): 0.73 nM

Compound: C[C@H]1[C@@H](OCc2ccc(C(=O)[O-])cc2)O[C@@H]2O[C@]3(C)CC[C@H]4[C@H](C)CC[C@@H]1[C@@]24OO3.[Na+] [SODIUMARTELINATE]
half-life [2]: 10.8 days
